Assay results reported in patent US20140140946A1, “SKIN PREPARATION COMPOSITION FOR EXTERNAL USE WITH EXCELLENT ANTIBACTERIAL AND ANTIFUNGAL EFFECTS” (priority 2010, published 2014).

Legend:
Assay type in all cases: cell-based
[1] = test system: Pityrosporum ovale (Malassezia furfur); assay: Growth of Pityrosporum ovale in Leeming & Notman medium; conditions: 32° C. for 3 days; FIG. 4; trisodium phosphate at pH 8.0
Description: Each of citric acid (pH 4.0), trisodium phosphate (TSP, pH 8.4) and citric acid+trisodium phosphate (pH 5.0) was added to Leeming & Notman medium of 1 L containing glucose 10 g, peptone 10 g, bile salts 8 g, yeast extract 2 g, glycerol monostearate 0.5 g, glycerol 10 ml and Tween 80 (1.5%) 15 ml, and 0.1 ml of Pityrosporum ovale (Malassezia furfur), which is a kind of fungi known for causing atopy, was injected to each group.

[2] = test system: Peptostreptococcus asaccharolyticus (KTCC 3321); assay: Growth of Peptostreptococcus asaccharolyticus in Wilkins Chalgren Anaerobe Broth; conditions: citric acid 0.8 g, trisodium phosphate 1.85 g, pH 6.0
From the text: (§1) The following control group is a broth not injected with the bacteria.

[3] = test system: Streptococcus mitis (KCTC 3556); assay: Growth of Streptococcus mitis in BHI broth; conditions: citric acid 0.4 g, trisodium phosphate 0.64 g, pH 6.0
From the text: as §1

[4] = test system: Streptococcus mutans (KCTC 3065); assay: Growth of Streptococcus mutans in BHI broth; conditions: citric acid 0.4 g, trisodium phosphate 0.64 g, pH 6.0
From the text: as §1

[5] = test system: S. salivarius (KCTC 3960); assay: Growth of S. salivarius in BHI broth; conditions: citric acid 0.4 g, trisodium phosphate 0.64 g, pH 6.0
From the text: as §1

Streptococcus sanguinis = assay: Growth of Streptococcus sanguinis in BHI broth; conditions: citric acid 0.4 g, trisodium phosphate 0.64 g, pH 6.0
From the text: as §1

In the case of O=P([O-])([O-])[O-].[Na+].[Na+].[Na+] [trisodium phosphate], the “growth of P. ovale” value [1] is reported as “significantly suppressed”.

In the case of HCl [Broth D], the “Absorbance (OD)” value ([2]; 4 hrs) is reported as 0.005 OD, the “Absorbance (OD)” value ([2]; 8 hrs) is reported as 0.010 OD and the “Absorbance (OD)” value ([2]; 12 hrs) is reported as 0.002 OD. For the same molecule, the “Absorbance (OD)” value ([2]; 16 hrs) was 0.008 OD, the “Growth observed (in words)” value ([2]; 20 hrs) was “No change” and the “Growth observed (in words)” value ([2]; 24 hrs) was “No change”. For the same molecule, the “Growth observed (in words)” value ([2]; 56 hrs) was “Full growth”, the “Absorbance (OD)” value ([3]; 4 hrs) was 0.054 OD and the “Absorbance (OD)” value ([3]; 6 hrs) was 0.104 OD. The “Absorbance (OD)” value ([3]; 8 hrs) was 0.205 OD, the “Absorbance (OD)” value ([3]; 10 hrs) was 0.244 OD and the “Absorbance (OD)” value ([3]; 12 hrs) was 0.218 OD. For the same molecule, the “Absorbance (OD)” value ([3]; 14 hrs) was 0.127 OD, the “Absorbance (OD)” value ([3]; 16 hrs) was 0.089 OD and the “Absorbance (OD)” value ([3]; 18 hrs) was 0.092 OD. For the same molecule, the “Absorbance (OD)” value ([4]; 4 hrs) was 0.032 OD, the “Absorbance (OD)” value ([4]; 6 hrs) was 0.092 OD and the “Absorbance (OD)” value ([4]; 8 hrs) was 0.141 OD. For the same molecule, the “Absorbance (OD)” value ([4]; 10 hrs) was 0.200 OD, the “Absorbance (OD)” value ([4]; 12 hrs) was 0.244 OD and the “Absorbance (OD)” value ([4]; 14 hrs) was 0.212 OD. The “Absorbance (OD)” value ([4]; 16 hrs) was 0.235 OD, the “Absorbance (OD)” value ([4]; 18 hrs) was 0.210 OD and the “Absorbance (OD)” value ([5]; 4 hrs) was 0.011 OD. The “Absorbance (OD)” value ([5]; 6 hrs) was 0.068 OD, the “Absorbance (OD)” value ([5]; 8 hrs) was 0.167 OD and the “Absorbance (OD)” value ([5]; 10 hrs) was 0.192 OD. For the same molecule, the “Absorbance (OD)” value ([5]; 12 hrs) was 0.224 OD, the “Absorbance (OD)” value ([5]; 14 hrs) was 0.234 OD and the “Absorbance (OD)” value ([5]; 16 hrs) was 0.319 OD. For the same molecule, the “Absorbance (OD)” value ([5]; 18 hrs) was 0.224 OD, the “Absorbance (OD)” value (Streptococcus sanguinis; 4 hrs) was 0.018 OD and the “Absorbance (OD)” value (Streptococcus sanguinis; 6 hrs) was 0.039 OD. For the same molecule, the “Absorbance (OD)” value (Streptococcus sanguinis; 8 hrs) was 0.118 OD, the “Absorbance (OD)” value (Streptococcus sanguinis; 10 hrs) was 0.127 OD and the “Absorbance (OD)” value (Streptococcus sanguinis; 12 hrs) was 0.283 OD. For the same molecule, the “Absorbance (OD)” value (Streptococcus sanguinis; 14 hrs) was 0.303 OD, the “Absorbance (OD)” value (Streptococcus sanguinis; 16 hrs) was 0.203 OD and the “Absorbance (OD)” value (Streptococcus sanguinis; 18 hrs) was 0.199 OD.
